Assay results reported in ChEMBL document CHEMBL1131845, “Naphthazarin derivatives (II): formation of glutathione conjugate, inhibition of DNA topoisomerase-I and cytotoxicity” (Bioorg Med Chem Lett, 1999).
Converted amounts (≈) assume the structure as drawn.

Tests used:
L1210 = test: Cytotoxicity against L1210 cells; type: functional; settings: Mus musculus, read-out: ED50 (the source's name)
[1] = Concentration formed during 5 min incubation of quinone (1 mM) with GSH (5 mM)

| SMILES | EC50 (L1210) | Concentration [1] |
| --- | --- | --- |
| CCCC(O)C1=CC(=O)c2c(OC)ccc(OC)c2C1=O (stereo not given) | 0.409 µg/mL (≈ 1.41 µM) | 0.116 mM |
| CCCCC(O)c1cc(OC)c2c(c1OC)C(=O)C=CC2=O (stereo not given) | 0.057 µg/mL (≈ 0.187 µM) | – |
| COc1cc(CO)c(OC)c2c1C(=O)C=CC2=O | 0.062 µg/mL (≈ 0.25 µM) | 0.314 mM |
| CCC(O)c1cc(OC)c2c(c1OC)C(=O)C=CC2=O (stereo not given) | 0.085 µg/mL (≈ 0.308 µM) | 0.295 mM |
| CCCCCCCC(O)C1=CC(=O)c2c(OC)ccc(OC)c2C1=O (stereo not given) | 1.04 µg/mL (≈ 3.01 µM) | 0.06 mM |
| COc1ccc(OC)c2c1C(=O)C=C(C(C)O)C2=O (stereo not given) | 0.487 µg/mL (≈ 1.86 µM) | 0.125 mM |
| CCCCCC(O)C1=CC(=O)c2c(OC)ccc(OC)c2C1=O (stereo not given) | 0.378 µg/mL (≈ 1.19 µM) | 0.124 mM |
| CCCCC(O)C1=CC(=O)c2c(OC)ccc(OC)c2C1=O (stereo not given) | 0.412 µg/mL (≈ 1.35 µM) | 0.131 mM |
| CCCCCC(O)c1cc(OC)c2c(c1OC)C(=O)C=CC2=O (stereo not given) | 0.066 µg/mL (≈ 0.207 µM) | 0.28 mM |
| CCCCCCC(O)C1=CC(=O)c2c(OC)ccc(OC)c2C1=O (stereo not given) | 0.732 µg/mL (≈ 2.2 µM) | 0.072 mM |
| COc1cc(C(C)O)c(OC)c2c1C(=O)C=CC2=O (stereo not given) | 0.132 µg/mL (≈ 0.503 µM) | 0.304 mM |
| CCCCCCC(O)c1cc(OC)c2c(c1OC)C(=O)C=CC2=O (stereo not given) | 0.22 µg/mL (≈ 0.662 µM) | 0.182 mM |
| CCC(O)C1=CC(=O)c2c(OC)ccc(OC)c2C1=O (stereo not given) | 0.516 µg/mL (≈ 1.87 µM) | 0.084 mM |
| CCCCCCCC(O)c1cc(OC)c2c(c1OC)C(=O)C=CC2=O (stereo not given) | 0.274 µg/mL (≈ 0.791 µM) | 0.137 mM |
| COc1ccc(OC)c2c1C(=O)C=C(CO)C2=O | 0.524 µg/mL (≈ 2.11 µM) | 0.13 mM |
| CCCC(O)c1cc(OC)c2c(c1OC)C(=O)C=CC2=O (stereo not given) | 0.043 µg/mL (≈ 0.148 µM) | – |
